From the NIST ThermoML archive (doi:10.1016/j.jct.2017.03.026)
“And” between values parts separate entries of the source, which are not always exact repeats. Equal values may be shown once.

Assay: molar heat capacity at constant pressure
Details: 101.33 kPa, Crystal, Small (less than 1 g) adiabatic calorimetry

O.O.O.O.O.O=S(=O)([O-])[O-].[Cu+2] [copper(II) sulfate pentahydrate]
Details | molar heat capacity at constant pressure
287.75 K | 289.04 J/K/mol
287.82 K | 289.61 J/K/mol
288.14 K | 289.34 J/K/mol
288.18 K | 290.46 J/K/mol
288.42 K | 289.31 J/K/mol
288.47 K | 290.31 J/K/mol
288.59 K | 291.83 J/K/mol
288.8 K | 291.86 J/K/mol
289.09 K | 290.24 J/K/mol
289.13 K | 293.01 J/K/mol
289.48 K | 297.45 J/K/mol
289.75 K | 292.88 J/K/mol
289.76 K | 282.28 J/K/mol and 282.25 J/K/mol and 292.61 J/K/mol
289.83 K | 290.48 J/K/mol
290 K | 282.3 J/K/mol
290.23 K | 291.98 J/K/mol
290.44 K | 291.33 J/K/mol
290.57 K | 288.74 J/K/mol
290.91 K | 292.31 J/K/mol and 292.23 J/K/mol
291.11 K | 292.78 J/K/mol and 291.01 J/K/mol
291.26 K | 298.2 J/K/mol
291.62 K | 292.93 J/K/mol
291.78 K | 291.86 J/K/mol
291.96 K | 292.13 J/K/mol
292.07 K | 282.87 J/K/mol
292.1 K | 293.31 J/K/mol
292.31 K | 293.26 J/K/mol
292.46 K | 294.11 J/K/mol
292.51 K | 284.12 J/K/mol
292.65 K | 291.23 J/K/mol
292.99 K | 292.66 J/K/mol
293.15 K | 293.46 J/K/mol
293.27 K | 294.35 J/K/mol
293.33 K | 294.9 J/K/mol
293.67 K | 295.88 J/K/mol
293.82 K | 293.83 J/K/mol
294.03 K | 294.9 J/K/mol and 295.65 J/K/mol
294.37 K | 295.73 J/K/mol
294.44 K | 295.25 J/K/mol
294.48 K | 285.79 J/K/mol
294.5 K | 295.03 J/K/mol
294.72 K | 294.11 J/K/mol
295.06 K | 293.36 J/K/mol
295.25 K | 295.78 J/K/mol
295.26 K | 286 J/K/mol
295.4 K | 295.15 J/K/mol
295.61 K | 296.03 J/K/mol
295.81 K | 299.05 J/K/mol
295.94 K | 296.5 J/K/mol
296.17 K | 298.85 J/K/mol
296.52 K | 298.75 J/K/mol
296.64 K | 295.93 J/K/mol
296.79 K | 296.15 J/K/mol
296.84 K | 287.36 J/K/mol
296.88 K | 296.35 J/K/mol
296.93 K | 297 J/K/mol
297.22 K | 297.15 J/K/mol
297.32 K | 296.23 J/K/mol
297.57 K | 297.23 J/K/mol
297.91 K | 299.05 J/K/mol
297.94 K | 297.85 J/K/mol
298 K | 296.85 J/K/mol
298.02 K | 287.88 J/K/mol
298.15 K | 288 J/K/mol
298.25 K | 298.42 J/K/mol
298.59 K | 299.17 J/K/mol
298.68 K | 299.05 J/K/mol
298.94 K | 299.4 J/K/mol
299.12 K | 298.65 J/K/mol
299.23 K | 288.76 J/K/mol
299.29 K | 300.47 J/K/mol
299.37 K | 298.15 J/K/mol
299.64 K | 299.5 J/K/mol
299.82 K | 299.2 J/K/mol
300 K | 289.3 J/K/mol
300.06 K | 299.2 J/K/mol
300.3 K | 299.45 J/K/mol
300.75 K | 298.85 J/K/mol
300.77 K | 289.98 J/K/mol
301.44 K | 299.02 J/K/mol
301.47 K | 300.17 J/K/mol
301.59 K | 289.49 J/K/mol
302.12 K | 300.57 J/K/mol
302.65 K | 301.05 J/K/mol
302.7 K | 301.5 J/K/mol
302.82 K | 300.42 J/K/mol
303.5 K | 300.72 J/K/mol
303.53 K | 291.77 J/K/mol
303.83 K | 301.92 J/K/mol
303.92 K | 292.06 J/K/mol
304.18 K | 301.47 J/K/mol
304.87 K | 301.52 J/K/mol
305.01 K | 302.77 J/K/mol
305.55 K | 302.32 J/K/mol
305.56 K | 303.47 J/K/mol
306.19 K | 303.64 J/K/mol
306.28 K | 293.59 J/K/mol
306.3 K | 293.93 J/K/mol and 304.42 J/K/mol
306.99 K | 304.54 J/K/mol
307.44 K | 304.69 J/K/mol
307.7 K | 304.19 J/K/mol
308.38 K | 304.52 J/K/mol
308.41 K | 305.57 J/K/mol
308.62 K | 305.54 J/K/mol
308.68 K | 295.75 J/K/mol
309.04 K | 295.5 J/K/mol
309.07 K | 305.39 J/K/mol
309.75 K | 305.67 J/K/mol
309.8 K | 305.39 J/K/mol
310 K | 296 J/K/mol
310.43 K | 305.52 J/K/mol
310.97 K | 306.74 J/K/mol
311.08 K | 296.13 J/K/mol
311.11 K | 306.24 J/K/mol
311.25 K | 307.59 J/K/mol
311.79 K | 306.69 J/K/mol
311.8 K | 297.26 J/K/mol
312.15 K | 307.81 J/K/mol
312.47 K | 307.31 J/K/mol
313.16 K | 307.84 J/K/mol
313.33 K | 308.96 J/K/mol
313.44 K | 298.8 J/K/mol
313.84 K | 308.56 J/K/mol
314.07 K | 309.84 J/K/mol
314.51 K | 309.76 J/K/mol
314.52 K | 309.11 J/K/mol
314.56 K | 298.99 J/K/mol
315.19 K | 310.48 J/K/mol
315.69 K | 310.88 J/K/mol
315.85 K | 300.25 J/K/mol
315.89 K | 310.18 J/K/mol
316.57 K | 310.56 J/K/mol
316.88 K | 312.41 J/K/mol and 311.61 J/K/mol
317.31 K | 309.31 J/K/mol
317.53 K | 300.52 J/K/mol
317.99 K | 311.11 J/K/mol
318.06 K | 312.53 J/K/mol
318.28 K | 301.47 J/K/mol
318.66 K | 311.58 J/K/mol
319.25 K | 313.46 J/K/mol
319.34 K | 313.53 J/K/mol
319.69 K | 314.25 J/K/mol
320 K | 302.2 J/K/mol
320.02 K | 313.28 J/K/mol
320.3 K | 302.56 J/K/mol
320.43 K | 313.61 J/K/mol
320.7 K | 312.78 J/K/mol
320.71 K | 302.82 J/K/mol
321.37 K | 314.2 J/K/mol
321.6 K | 312.51 J/K/mol
322.05 K | 315.53 J/K/mol
322.49 K | 315.5 J/K/mol
322.74 K | 316.33 J/K/mol
322.78 K | 316.4 J/K/mol
323.07 K | 304.17 J/K/mol
323.15 K | 304.37 J/K/mol
323.43 K | 315.9 J/K/mol
323.97 K | 317.18 J/K/mol
324.11 K | 315.95 J/K/mol
